Measured values: patent EP4494656A1 (priority 2023, dated 2025)
Numbered stars: 1 amine (or outer) side, 2 acyl side, 3 side chain; on linkers, the order of the positions; unused ones are H or OH. Bridge positions count the residues as written; N and C are the ends. Square brackets hold non-standard residues; d marks the D form. Peptide text beside a SMILES is read from it. * marks the point of attachment. Adda = CO[C@@H](Cc1ccccc1)[C@@H](C)/C=C(C)/C=C/[C@H](N[*:1])[C@H](C)C(=O)[*:2]; dAsp(3S-Me) = C[C@H](C(=O)[*:3])[C@@H](N[*:1])C(=O)[*:2]; d(γGlu) = O=C(O)[C@@H](CCC(=O)[*:2])N[*:1]; NMeDha = C=C(NC)C(=O)O; Propargyl = C#CC*

Experiments:
[1] = test system: HEK293 OATP1B1+
[2] = test system: OATP1B3; assay: in vitro; details: human
[3] = test system: OATP1B1; assay: in vitro; details: human
[4] = biological target: protein phosphatase-1 catalytic subunit (a-Isoform from rabbit, Sigma-Aldrich) (Oryctolagus cuniculus, UniProt P62139)
[5] = test system: HEK293 OATP1B3+
[6] = biological target: type 1 protein phosphatase; details: cited from earlier work
[7] = biological target: type 2A protein phosphatase; details: cited from earlier work

Sequence of protein phosphatase-1 catalytic subunit (a-Isoform from rabbit, Sigma-Aldrich) (P62139 whole entry, looked up, canonical isoform): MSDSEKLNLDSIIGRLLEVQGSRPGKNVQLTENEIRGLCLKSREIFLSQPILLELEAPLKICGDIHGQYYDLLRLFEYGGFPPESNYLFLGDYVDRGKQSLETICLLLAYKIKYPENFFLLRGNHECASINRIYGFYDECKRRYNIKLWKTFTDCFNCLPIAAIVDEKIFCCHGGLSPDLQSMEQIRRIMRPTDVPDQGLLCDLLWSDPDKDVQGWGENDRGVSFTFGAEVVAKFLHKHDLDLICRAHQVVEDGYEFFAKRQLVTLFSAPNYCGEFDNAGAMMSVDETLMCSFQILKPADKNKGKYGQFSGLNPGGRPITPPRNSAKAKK

SMILES	increase of IC50_OATP1B1 compared to the corresponding MC-PrgTyr-Arg monomer [1]	increase of IC50_OATP1B1 in comparison to MC-LR [1]	IC50 [2] [nM]	IC50 [3] [nM]	lower IC50_PPI compared to the IC50_PPI of the MC-LR reference cytotoxin [4]	lower IC50_PPI compared to the IC50_PPI of the corresponding MC-PrgTyr-Arg monomer [4]	increase of IC50_OATP1B3 compared to the MC-PrgTyr-Arg monomer [5] [fold]	increase of IC50_OATP1B3 in comparison to MC-LR [5] [fold]	Ratio of IC50_OATP1B1/ IC50_PPI [1]	IC50 ([1]; read-out: IC50_OATP1B1 ± SE) [nM]	IC50 [6] [nM]	Ratio of IC50_OATP1B3/ IC50_PPI [5]	IC50 ([5]; read-out: IC50_OATP1B3 ± SE) [nM]	IC50 [7] [nM]
C=C1C(=O)N[C@H](C)C(=O)N[C@@H](Cc2ccc(OCc3cn(CC(=O)N4CCN(C(=O)[C@H](CCCCN)n5cc(COc6ccc(C[C@@H]7NC(=O)[C@@H](C)NC(=O)C(=C)N(C)C(=O)CC[C@H](C(=O)O)NC(=O)[C@@H](C)[C@H](/C=C/C(C)=C/[C@H](C)[C@H](Cc8ccccc8)OC)NC(=O)[C@H](CCCNC(=N)N)NC(=O)[C@@H](C)[C@H](C(=O)O)NC7=O)cc6)nn5)CC4)nn3)cc2)C(=O)N[C@@H](C(=O)O)[C@H](C)C(=O)N[C@@H](CCCNC(=N)N)C(=O)N[C@@H](/C=C/C(C)=C/[C@H](C)[C@H](Cc2ccccc2)OC)[C@H](C)C(=O)N[C@@H](C(=O)O)CCC(=O)N1C [MC-PrgTyr-Arg-Dimer-2]	more than 36 fold	more than 175 fold	1850 ± 309	> 3000	about 16 fold	more than 50 fold	45	234						
C#CCOc1ccc(C[C@@H]2NC(=O)[C@@H](C)NC(=O)C(=C)N(C)C(=O)CC[C@H](C(=O)O)NC(=O)[C@@H](C)[C@H](/C=C/C(C)=C/[C@H](C)[C@H](Cc3ccccc3)OC)NC(=O)[C@H](CCCNC(=N)N)NC(=O)[C@@H](C)[C@H](C(=O)O)NC2=O)cc1 [MC-PrgTyr-Arg, cyclo(D-Ala-PrgTyr-D-MeAsp-Arg-Adda-D-Glu-Mdha), reference compound] (R[Adda][d(γGlu)][NMeDha][dA]Y(Propargyl)[dAsp(3S-Me)]-OH; lactam N-7)			40.4 ± 36.6	82.2 ± 4.5										
C=C1C(=O)N[C@H](C)C(=O)N[C@@H](Cc2ccc(OCc3cn(CC(=O)N4CCN(C(=O)Cn5cc(COc6ccc(C[C@@H]7NC(=O)[C@@H](C)NC(=O)C(=C)N(C)C(=O)CC[C@H](C(=O)O)NC(=O)[C@@H](C)[C@H](/C=C/C(C)=C/[C@H](C)[C@H](Cc8ccccc8)OC)NC(=O)[C@H](CCCNC(=N)N)NC(=O)[C@@H](C)[C@H](C(=O)O)NC7=O)cc6)nn5)CC4)nn3)cc2)C(=O)N[C@@H](C(=O)O)[C@H](C)C(=O)N[C@@H](CCCNC(=N)N)C(=O)N[C@@H](/C=C/C(C)=C/[C@H](C)[C@H](Cc2ccccc2)OC)[C@H](C)C(=O)N[C@@H](C(=O)O)CCC(=O)N1C [MC-PrgTyr-Arg-Dimer-1]	24 fold	more than 116 fold	1060 ± 302	2000 ± 711	about 10 fold	more than 20 fold	26	134						
C=C1C(=O)N[C@H](C)C(=O)N[C@@H](CC(C)C)C(=O)N[C@@H](C(=O)O)[C@H](C)C(=O)N[C@@H](CCCNC(=N)N)C(=O)N[C@@H](/C=C/C(C)=C/[C@H](C)[C@H](Cc2ccccc2)OC)[C@H](C)C(=O)N[C@@H](C(=O)O)CCC(=O)N1C [MC-LR, microcystin-LR, reference compound] (R[Adda][d(γGlu)][NMeDha][dA]L[dAsp(3S-Me)]-OH; lactam N-7)									6.3	17.1 ± 2.1	0.03	2.9	7.9 ± 1.7	0.04
